One block for each molecule: values may come before it.
How the values were obtained:
[1] = tested on: cultured human mast cells (CHMC); assay: CHMC low cell density ionomycin activation: tryptase assay; type: cell-based; conditions: low cell density CHMC, 3 pt, read-out: LD Tryptase, CHMC, Iono, 3 pt
[2] = tested on: cultured human mast cells (CHMC); assay: CHMC low cell density IgE activation: tryptase assay; type: cell-based; conditions: low cell density CHMC, IgE activation
Summary of the method: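 CHMC at 1000–1500 cells/well were preincubated 1 hr at 37° C., stimulated with anti-IgE for 30 minutes at 37° C., then pelleted. Supernatant tryptase was measured with a fluorogenic substrate after 30 min at room temperature, against un-stimulated control wells.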

[3] = tryptase release, 3 pt, read-out: LD Tryptase, CHMC, IgE, 3 pt
[4] = tryptase release, 8 pt, read-out: LD Tryptase, CHMC, IgE, 8 pt
[5] = Homo sapiens, Mast cell, tryptase release
[6] = Homo sapiens, Mast cell, tryptase release, 3 pt, read-out: LD Tryptase, CHMC, IgE, 3 pt
[7] = Homo sapiens, Mast cell, tryptase release, 8 pt, read-out: LD Tryptase, CHMC, IgE, 8 pt
[8] = Homo sapiens, Mast cell, tryptase
[9] = Homo sapiens, Mast cell, tryptase, 3 pt, read-out: LD Tryptase, CHMC, IgE, 3 pt
[10] = tryptase, 3 pt, read-out: LD Tryptase, CHMC, IgE, 3 pt
[11] = Homo sapiens, Mast cell, tryptase, 8 pt, read-out: LD Tryptase, CHMC, IgE, 8 pt

Compound: O=C1Nc2cc(Nc3nc(Nc4cccc(-c5cnco5)c4)ncc3F)ccc2OC1CCO (stereo not drawn) [Compound 235]
IC50 [1, 5]: > 10 µM | IC50 [2, 6]: < 10 µM | IC50 [2, 7]: < 10 µM

Compound: C[C@@H]1Oc2ccc(Nc3nc(Nc4ccc(-c5ncco5)cc4)ncc3F)cc2NC1=O [Compound 240]
IC50 [1, 5]: > 10 µM | IC50 [2, 6]: < 10 µM | IC50 [2, 7]: < 10 µM

Compound: O=C1COc2cc(Nc3nc(Nc4ccc(-c5ncco5)cc4)ncc3F)ccc2N1 [Compound 241]
IC50 [1, 5]: > 10 µM | IC50 [2, 6]: > 10 µM

Compound: O=C1Nc2cc(Nc3nc(Nc4ccc(-c5ncco5)cc4)ncc3F)ccc2OC1CCO (stereo not drawn) [Compound 242]
IC50 [1, 5]: > 10 µM | IC50 [2, 6]: < 10 µM | IC50 [2, 7]: < 10 µM

Compound: CN1C(=O)COc2cc(Nc3nc(Nc4ccc(-c5ncco5)cc4)ncc3F)ccc21 [Compound 244]
IC50 [1, 5]: > 10 µM | IC50 [2, 6]: > 10 µM

Compound: O=C1Nc2ccc(Nc3nc(Nc4cccc(-c5ncco5)c4)ncc3F)cc2OC1CCO (stereo not drawn) [Compound 248]
IC50 [1, 5]: > 10 µM | IC50 [2, 6]: < 10 µM | IC50 [2, 7]: < 10 µM

Compound: O=C1Nc2ccc(Nc3nc(Nc4ccc(-c5cnco5)cc4)ncc3F)cc2OC1CCO (stereo not drawn) [Compound 249]
IC50 [1, 5]: > 10 µM | IC50 [2, 6]: < 10 µM | IC50 [2, 7]: > 10 µM

Compound: C[C@H]1Oc2ccc(Nc3nc(Nc4cccc(-c5cocn5)c4)ncc3F)cc2NC1=O [Compound 250]
IC50 [1, 5]: < 10 µM | IC50 [2, 6]: < 10 µM | IC50 [2, 7]: < 10 µM

Compound: C[C@@H]1Oc2ccc(Nc3nc(Nc4cccc(-c5cocn5)c4)ncc3F)cc2NC1=O [Compound 251]
IC50 [1, 5]: > 10 µM | IC50 [2, 6]: < 10 µM | IC50 [2, 7]: < 10 µM

Compound: CNC(=O)COc1cccc(Nc2ncc(F)c(Nc3ccc4c(c3)NC(=O)CS4)n2)c1 [Compound 254, 5-Fluoro-N2-[3-(N-methylamino)carbonylmethyleneoxyphenyl]-N4-(3-oxo-2H,4H-benzo[1,4]thiazin-6-yl)-2,4-pyrimidinediamine]
IC50 ([1]; tryptase release): > 10 µM | IC50 [2, 3]: < 10 µM | IC50 [2, 4]: < 10 µM

Compound: COc1cc(Nc2ncc(F)c(Nc3ccc4c(c3)NC(=O)CS4)n2)cc(OC)c1 [Compound 256]
IC50 [1, 5]: > 10 µM | IC50 [2, 6]: < 10 µM | IC50 [2, 7]: < 10 µM

Compound: CNC(=O)COc1cccc(Nc2ncc(F)c(Nc3ccc4c(c3)NCCS4)n2)c1 [Compound 258, N4-(3,4-Dihydro-2H,4H-benzo[1,4]thiazin-6-yl)-5-fluoro-N2-[3-(N-methylamino)carbonylmethyleneoxyphenyl]-2,4-pyrimidinediamine]
IC50 ([1]; tryptase release): > 10 µM | IC50 [2, 3]: < 10 µM | IC50 [2, 4]: < 10 µM

Compound: CNC(=O)COc1cccc(Nc2ncc(F)c(Nc3ccc4c(c3)N(C)C(=O)CS4)n2)c1 [Compound 259, 5-Fluoro-N2-[3-(N-methylamino)carbonylmethyleneoxyphenyl]-N4-(4-methyl-3-oxo-2H-benzo[1,4]thiazin-6-yl)-2,4-pyrimidinediamine]
IC50 ([1]; tryptase release): > 10 µM | IC50 [2, 3]: < 10 µM | IC50 [2, 4]: < 10 µM

Compound: COc1cc(Nc2ncc(F)c(Nc3ccc4c(c3)N(C)C(=O)CS4)n2)cc(OC)c1 [Compound 260]
IC50 [1, 5]: > 10 µM | IC50 [2, 6]: < 10 µM | IC50 [2, 7]: < 10 µM

Compound: NC(=S)c1cccc(Nc2ncc(F)c(Nc3ccc4c(c3)NC(=O)C(CCO)O4)n2)c1 (stereo not drawn) [Compound 262, N2-(3-Benzothioamide)-5-fluoro-N4-[2-(2-hydroxyethyl)-3-oxo-2H,4H-benz[1,4]oxazin-6-yl]-2,4-pyrimidinediamine]
IC50 ([1]; tryptase release): > 10 µM | IC50 [2, 3]: < 10 µM

Compound: COc1cc(Nc2nc(Nc3ccc4oc(C(=O)O)cc4c3)ncc2F)cc(OC)c1 [Compound 382]
IC50 [1, 8]: > 10 µM | IC50 [2, 9]: > 10 µM

Compound: COc1cc(Nc2nc(Nc3cccc4cc(C(=O)NC(C)(C)CO)[nH]c34)ncc2F)cc(OC)c1 [Compound 389, N4-(3,5-Dimethoxyphenyl)-N2-[2-(N-1,1-dimethyl-2-hydroxyethylamino)carbonylindol-7-yl]-5-fluoro-2,4-pyrimidinediamine]
IC50 ([1]; tryptase): > 10 µM | IC50 [2, 10]: < 10 µM

Compound: Cc1cc(C)cc(Nc2ncc(F)c(Nc3ccc4c(c3)N(C)C(=O)C(C)(C)O4)n2)c1 [Compound 396]
IC50 [1, 8]: < 10 µM | IC50 [2, 9]: < 10 µM | IC50 [2, 11]: < 10 µM

The next lines start with the values.

IC50 ([1]; tryptase release): > 10 µM | IC50 [2, 3]: < 10 µM | IC50 [2, 4]: < 10 µM
Compound: CC1(C)COc2ccc(Nc3nc(Nc4cccc(-c5cnco5)c4)ncc3F)cc2N1 [Compound 233, N4-(3,4-Dihydro-3,3-dimethyl-2H,4H-benz[1,4]oxazin-6-yl)-5-fluoro-N2-[3-(oxazol-5-yl)phenyl]-2,4-pyrimidinediamine]

IC50 [1, 5]: > 10 µM | IC50 [2, 6]: < 10 µM | IC50 [2, 7]: < 10 µM
Compound: O=C1COc2cc(Nc3nc(Nc4cccc(-c5cnco5)c4)ncc3F)ccc2N1 [Compound 234]

IC50 [1, 5]: > 10 µM | IC50 [2, 6]: < 10 µM
Compound: CN1CCOc2ccc(Nc3nc(Nc4cccc(-c5cnco5)c4)ncc3F)cc21 [Compound 236]

IC50 [1, 5]: > 10 µM | IC50 [2, 6]: < 10 µM
Compound: CN1CCOc2cc(Nc3nc(Nc4cccc(-c5cnco5)c4)ncc3F)ccc21 [Compound 237]

IC50 ([1]; tryptase release): > 10 µM | IC50 [2, 3]: < 10 µM | IC50 [2, 4]: < 10 µM
Compound: CC1(C)COc2ccc(Nc3nc(Nc4ccc(-c5ncco5)cc4)ncc3F)cc2N1 [Compound 238, N4-(3,4-Dihydro-3,3-dimethyl-2H,4H-benz[1,4]oxazin-6-yl)-5-fluoro-N2-[4-(oxazol-2-yl)phenyl]-2,4-pyrimidinediamine]

IC50 [1, 5]: > 10 µM | IC50 [2, 6]: < 10 µM | IC50 [2, 7]: < 10 µM
Compound: O=C1COc2ccc(Nc3nc(Nc4ccc(-c5ncco5)cc4)ncc3F)cc2N1 [Compound 239]

IC50 ([1]; tryptase release): > 10 µM | IC50 [2, 3]: < 10 µM | IC50 [2, 4]: < 10 µM
Compound: CN1CCOc2ccc(Nc3nc(Nc4ccc(-c5ncco5)cc4)ncc3F)cc21 [Compound 243, N4-(2,3-Dihydro-4-methyl-2H-benz[1,4]oxazin-6-yl)-5-fluoro-N2-[4-(oxazol-2-yl)phenyl]-2,4-pyrimidinediamine]

IC50 [1, 5]: > 10 µM | IC50 [2, 6]: > 10 µM
Compound: CN1C(=O)COc2ccc(Nc3nc(Nc4ccc(-c5ncco5)cc4)ncc3F)cc21 [Compound 245]

IC50 [1, 5]: > 10 µM | IC50 [2, 6]: < 10 µM | IC50 [2, 7]: < 10 µM
Compound: O=C1COc2ccc(Nc3nc(Nc4cccc(-c5cnco5)c4)ncc3F)cc2N1 [Compound 246]

IC50 [1, 5]: > 10 µM | IC50 [2, 6]: < 10 µM | IC50 [2, 7]: < 10 µM
Compound: C[C@@H]1Oc2ccc(Nc3nc(Nc4cccc(-c5cnco5)c4)ncc3F)cc2NC1=O [Compound 247]

IC50 ([1]; tryptase release): > 10 µM | IC50 [2, 3]: < 10 µM | IC50 [2, 4]: < 10 µM
Compound: COc1cc(Nc2ncc(F)c(Nc3ccc4c(c3)NCC(CCO)O4)n2)cc(OC)c1 (stereo not drawn) [Compound 253, N4-[3,4-Dihydro-2-(2-hydroxyethyl)-2H,4H-benz[1,4]oxazin-6-yl]-N2-(3,5-dimethoxyphenyl)-5-fluoro-2,4-pyrimidinediamine]

IC50 ([1]; tryptase release): > 10 µM | IC50 [2, 3]: < 10 µM | IC50 [2, 4]: < 10 µM
Compound: Cc1cc(C)cc(Nc2ncc(F)c(Nc3ccc4c(c3)NCC(CCO)O4)n2)c1 (stereo not drawn) [Compound 255, N4-[2,3-Dihydro-2-(2-hydroxyethyl)-2H,4H-benz[1,4]oxazin-6-yl]-N2-(3,5-dimethylphenyl)-5-fluoro-2,4-pyrimidinediamine]

IC50 [1, 5]: > 10 µM | IC50 [2, 6]: < 10 µM | IC50 [2, 7]: < 10 µM
Compound: COc1ccc(Nc2ncc(F)c(Nc3ccc4c(c3)NC(=O)CS4)n2)cc1Cl [Compound 257]

IC50 ([1]; tryptase release): > 10 µM | IC50 [2, 3]: < 10 µM
Compound: NC(=S)c1cccc(Nc2ncc(F)c(Nc3ccc4c(c3)NC(=O)CO4)n2)c1 [Compound 261, N2-(3-Benzothioamide)-5-fluoro-N4-(3-oxo-2H,4H-benz[1,4]oxazin-6-yl)-2,4-pyrimidinediamine]

IC50 ([1]; tryptase): > 10 µM | IC50 [2, 10]: < 10 µM | IC50 ([2]; tryptase, 8 pt, read-out: LD Tryptase, CHMC, IgE, 8 pt): < 10 µM
Compound: CNC(=O)COc1cccc(Nc2ncc(F)c(N(C)c3ccc4c(c3)OCCO4)n2)c1 [Compound 385, N4-(3,4-Ethylenedioxyphenyl)-5-fluoro-N4-methyl-N2-[3-(N-methylamino)carbonylmethyleneoxyphenyl]-2,4-pyrimidinediamine]

IC50 [1, 8]: > 10 µM | IC50 [2, 9]: < 10 µM | IC50 [2, 11]: < 10 µM
Compound: COc1cc(Nc2ncc(F)c(N(C)c3ccc4c(c3)OCCO4)n2)cc(OC)c1 [Compound 386]

IC50 [1, 8]: > 10 µM | IC50 [2, 9]: < 10 µM
Compound: Cc1cc(C)cc(Nc2ncc(F)c(N(C)c3ccc4c(c3)OCCO4)n2)c1 [Compound 387]

IC50 [1, 8]: > 10 µM | IC50 [2, 9]: > 10 µM
Compound: COc1cc(Nc2ncc(F)c(N(C)c3ccc4c(c3)NC(=O)C(C)(C)O4)n2)cc(OC)c1 [Compound 388]

IC50 [1, 8]: > 10 µM | IC50 [2, 9]: > 10 µM
Compound: CN(c1ccc2c(c1)OCCO2)c1nc(Cl)ncc1F [Compound 390]

IC50 [1, 8]: < 10 µM | IC50 [2, 9]: < 10 µM
Compound: Cc1cc(C)cc(Nc2ncc(F)c(N(C)c3ccc4c(c3)N(C)C(=O)C(C)(C)O4)n2)c1 [Compound 391]

IC50 [1, 8]: < 10 µM | IC50 [2, 9]: < 10 µM
Compound: COc1ccc(Nc2ncc(F)c(N(C)c3ccc4c(c3)N(C)C(=O)C(C)(C)O4)n2)cc1Cl [Compound 392]

IC50 [1, 8]: < 10 µM | IC50 [2, 9]: < 10 µM
Compound: COc1cc(Nc2ncc(F)c(N(C)c3ccc4c(c3)N(C)C(=O)C(C)(C)O4)n2)cc(OC)c1 [Compound 393]

IC50 [1, 8]: < 10 µM | IC50 [2, 9]: < 10 µM | IC50 [2, 11]: < 10 µM
Compound: COC(=O)c1cc2cc(Nc3ncc(F)c(N(C)c4ccc5c(c4)OCCO5)n3)ccc2o1 [Compound 395]

Source: patent publication US20220073536A1 (Rigel Pharmaceuticals, Inc., priority 2003, published 2022)
